{
  "source": "patent US20220257546A1",
  "about": "“KETONE BODIES ENCLOSED IN MICROBEADS” (Ketoswiss AG, priority 2019, published 2022)",
  "key": {"[1]": {"assay": "Tolerability of βHB, Example 3 trial", "settings": "about 18 g dose", "source_text": "(§1) The participants went to the visits A, B and C in a randomized order.\n(§2) The experimental setup allowed to directly determine the physiological effects of ingesting βHB enclosed in microbeads compared to standard non-enclosed βHB. To distinguish the effects of βHB from effects of the enclosing material, i.e. the pea protein, participants have also ingested empty microbeads on one trial day."}, "[2]": {"settings": "in vivo", "source_text": "as §1, §2"}, "[3]": {"assay": "βHB blood plasma concentration after 18 g βHB in microbeads or free (Example 3 cross-over trial)", "assay_type": "in vivo, human", "settings": "n=10", "excerpt": "A dose of βHB contained in microbeads was 20 g of microbeads containing a mix of 50% R-3-hydroxybutyrate mineral salts (Na/Ca/K/Mg Blend 1:1:1:2) and 50% R-3-hydroxybutyric acid (βHB formulation). In particular, said βHB formulation was enriched in pockets dispersed throughout a polymerized yellow pea protein matrix of the microbead particles and constituted approximately 89 to 90% of the weight of the microbead. Thus, the βHB formulation comprised in said dose was about 18 g, in particular about 17.8 g.\nThe dose of non-enclosed (free) βHB was also about 18 g, in particular about 17.8 g, and the dose of empty microbeads was about 2 g, in particular about 2.2 g. Thus, the free βHB and empty microbeads were direct controls of the composition comprising βHB contained in microbeads.\nFor administration, one dose was suspended in 250 ml of lemon-flavored non-caloric water.\nParticipants arrived at the laboratory between 7.30 and 9.00 after an overnight fast, and provided a urine sample for hydration assessment (PEN Refractometer, Atago Instruments). Next, a fasting blood sample was taken via a cannula inserted into a superficial forearm vein for serial blood sampling. After providing a “fasting” blood sample, participants ingested a 250 mL lemon flavored non-caloric water drink wherein the 18 g dose of a microbead comprising the βHB formulation was suspended. After supplementation, baseline determinations tests were repeated for comparison between the pre- and post-supplementation periods. Every 30 min for three hours after ingestion, a blood sample was taken. After 3 hours, a blood sample was taken at 1-hour intervals. After 8 hours, a blood sample was taken at 2-hour intervals. Participants remained in the lab at quiet rest throughout this time period and were permitted to use entertainment headsets and the digital library and were allowed make short walks outside. […] The blood samples were, at least for the determination of AcAc levels, directly analyzed within 2 hours (or otherwise stored at −80° C. before analysis). […]"}, "[4]": {"assay": "Glucose blood plasma levels, Example 3 trial", "assay_type": "in vivo, human", "settings": "about 18 g βHB formulation; snack provided at 6 h; n=10", "method": "Participants arrived at the laboratory between 7.30 and 9.00 after an overnight fast, and provided a urine sample for hydration assessment (PEN Refractometer, Atago Instruments). Next, a fasting blood sample was taken via a cannula inserted into a superficial forearm vein for serial blood sampling. After providing a “fasting” blood sample, participants ingested a 250 mL lemon flavored non-caloric water drink wherein the 18 g dose of a microbead comprising the βHB formulation was suspended. After supplementation, baseline determinations tests were repeated for comparison between the pre- and post-supplementation periods. Every 30 min for three hours after ingestion, a blood sample was taken. After 3 hours, a blood sample was taken at 1-hour intervals. After 8 hours, a blood sample was taken at 2-hour intervals. Participants remained in the lab at quiet rest throughout this time period and were permitted to use entertainment headsets and the digital library and were allowed make short walks outside. Participants were offered some small snack 6 hours after consumption of the prototype drink which they could choose from low caloric yoghurts, muesli bars and low caloric fruit juices. […] The blood samples were, at least for the determination of AcAc levels, directly analyzed within 2 hours (or otherwise stored at −80° C. before analysis). […]"}, "[5]": {"settings": "about 18 g βHB formulation oral"}},
  "data": [
    {"smiles": "C[C@@H](O)CC(=O)O", "note": "[free βHB, R-3-hydroxybutyric acid]", "values": [
      {"measurement": "participants expressing mild nausea", "setting": "[1]; of 10 participants", "result": 4, "unit": "participants"},
      {"measurement": "participants expressing severe discomfort and sickness", "setting": "[1]; of 10 participants", "result": 3, "unit": "participants"},
      {"measurement": "participants reporting gastrointestinal distress (stomach cramping, upset, nausea, bloating, diarrhea)", "setting": "[1]; within the first hour upon ingestion", "result": "7 of 10 participants"},
      {"measurement": "tolerability of the dose", "setting": "[2]", "result": "poorly tolerated"},
      {"measurement": "average plasma βHB concentration at peak", "setting": "[3]; about 18 g βHB formulation oral in 250 ml lemon-flavored water, first measurement time-point", "result": 1.5, "unit": "mM"},
      {"measurement": "time within which plasma βHB concentration dropped to baseline levels", "setting": "[3]; [5]", "result": "≤ 2", "unit": "h"},
      {"measurement": "time-point of peak average plasma βHB concentration", "setting": "[3]; [5]", "result": 0.5, "unit": "h"},
      {"measurement": "blood glucose levels upon ingestion", "setting": "[4]", "result": "not altered for at least 4 hours"}
    ]}
  ]
}
